One assay has as its system pigweed. Description: Test B pre/postemergence pigweed. It counts as in vivo, Amaranthus retroflexus. The essentials:
(§1)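 Test chemicals in a non-phytotoxic solvent mixture with surfactant were sprayed preemergence onto planted seeds and postemergence onto plants 2 to 18 cm tall (1- to 4-leaf stage). After twelve to sixteen days in a greenhouse, injury was visually rated against untreated controls from 0 (no effect) to 10 (complete control).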

For a further assay, the system named is rape. The experiment in a line: Test B pre/postemergence rape. It counts as in vivo, Brassica napus. The essentials:
as §1

The subject of the next assay is sugar beet. Description: Test B pre/postemergence sugar beet. In kind it is in vivo, Beta vulgaris. The essentials:
as §1

[1] abbreviates: Postemergence, Rate 250 g/ha, scale 0 to 10, 0 no effect, 10 complete control.
The mark [2] stands for this setting: Postemergence, Rate 1000 g/ha, scale 0 to 10 (0 no effect, 10 complete control).
Where [3] appears, read: Preemergence, Rate 125 g/ha, scale 0 to 10 (0 no effect, 10 complete control).
The mark [4] stands for this setting: Preemergence, Rate 250 g/ha, scale of 0 to 10 where 0 is no effect and 10 is complete control.
Where [5] appears, read: Preemergence, Rate 500 g/ha, scale 0 (no effect) to 10 (complete control).
Setting [6] is: Rate 125 g/ha, Postemergence, scale 0 to 10, 0 no effect, 10 complete control.
[7] abbreviates: Rate 500 g/ha, Postemergence, 0 to 10 scale (0 no effect, 10 complete control).
[8] abbreviates: Rate 1000 g/ha, Preemergence, scale 0 to 10 (0 no effect, 10 complete control).
[9] abbreviates: Postemergence, Rate 62 g/ha, scale 0 to 10, 0 is no effect, 10 is complete control.
Where [10] appears, read: Preemergence, Rate 62 g/ha, scale 0 to 10, 0 is no effect, 10 is complete control.
Where [11] appears, read: Preemergence, Rate 31 g/ha, visual rating, scale 0 to 10 (0 no effect, 10 complete control).
The mark [12] stands for this setting: Rate 31 g/ha, Postemergence, scale 0 to 10.

The structures appear in SMILES notation.

The record followed here is US6737383B1, “Herbicidal oxadiazolidines” (priority 1999, dated 2004).

As to `CCN(CC)C(=O)n1oc(=O)n(-c2ccc(OC)cc2)c1=O` [Compound 1], the “Redroot pigweed plant response rating” value came to 4 in the assay on pigweed (setting [1]); 9 in the assay on pigweed (setting [2]); 2 with pigweed (setting [5]); 2 in the assay with pigweed (setting [6]); 8 with pigweed (setting [7]). Moreover, the “Plant response rating, Redroot pigweed” value is 0 in the assay on pigweed (setting [3]), 0 in the assay on pigweed (setting [4]) and 2 in the assay with pigweed (setting [8]). The “Rape plant response rating” value in the assay with rape (setting [1]) is given as 0; with rape (setting [2]) it was 4; in the assay with rape (setting [5]) it was 0; in the assay on rape (setting [6]), 0; with rape (setting [7]) it was 2. For the same molecule, the “Plant response rating, Rape” value in the assay on rape (setting [3]), in the assay on rape (setting [4]) and in the assay with rape (setting [8]) was 0 each time. For the same molecule, the “Sugarbeets plant response rating” value came out at 0 in the assay on sugar beet (setting [1]), 5 in the assay with sugar beet (setting [2]), 0 in the assay on sugar beet (setting [5]) and 0 with sugar beet (setting [6]). The “Plant response rating, Sugarbeets” value with sugar beet (setting [3]), in the assay on sugar beet (setting [4]) and with sugar beet (setting [8]) was 0 in each case.

Take `COc1ccc(-n2c(=O)on(C(=O)N(C3=CCOCC3)C(C)C)c2=O)cc1` [Compound 6]: the “Redroot pigweed plant response rating” value with pigweed (setting [1]) is 0; in the assay on pigweed (setting [2]), 4; in the assay with pigweed (setting [5]), 7; with pigweed (setting [6]), 0; with pigweed (setting [7]) it was 0. Further, the entries for the “Plant response rating, Redroot pigweed” value with pigweed (setting [3]), with pigweed (setting [4]) and in the assay with pigweed (setting [8]) were 5, 5 and 7, respectively. In addition, the “Rape plant response rating” value with rape (setting [1]) is recorded as 0; in the assay with rape (setting [2]), 2; with rape (setting [5]) it was 0; in the assay with rape (setting [6]), 0; in the assay on rape (setting [7]), 0. Besides, the “Plant response rating, Rape” value with rape (setting [3]), in the assay on rape (setting [4]) and in the assay with rape (setting [8]) was 0 throughout. The “Sugarbeets plant response rating” value with sugar beet (setting [1]) was 0; with sugar beet (setting [2]), 3; in the assay with sugar beet (setting [5]), 0; with sugar beet (setting [6]), 0. Besides, the “Plant response rating, Sugarbeets” value in the assay on sugar beet (setting [3]), in the assay on sugar beet (setting [4]) and with sugar beet (setting [8]) was 0 each time.

For the molecule `CC(C)N(C(=O)n1oc(=O)n(-c2cc(Cl)cc(Cl)c2)c1=O)C1=CCOCC1` [Compound 9], the “Redroot pigweed plant response rating” value is 0 in the assay on pigweed (setting [1]); 3 in the assay on pigweed (setting [2]); 0 with pigweed (setting [5]); 0 in the assay with pigweed (setting [6]); 3 in the assay with pigweed (setting [7]). Also, the “Plant response rating, Redroot pigweed” value with pigweed (setting [3]), in the assay on pigweed (setting [4]) and in the assay on pigweed (setting [8]) was 0 throughout. The “Rape plant response rating” value with rape (setting [1]), with rape (setting [2]), with rape (setting [5]), with rape (setting [6]) and with rape (setting [7]) was 0 each time. Further, the “Plant response rating, Rape” value in the assay on rape (setting [3]), with rape (setting [4]) and in the assay with rape (setting [8]) was 0 each time. Besides, the “Sugarbeets plant response rating” value in the assay with sugar beet (setting [1]), in the assay on sugar beet (setting [2]), in the assay on sugar beet (setting [5]) and with sugar beet (setting [6]) was 0 in each case. Besides, the “Plant response rating, Sugarbeets” value in the assay on sugar beet (setting [3]), in the assay on sugar beet (setting [4]) and with sugar beet (setting [8]) was 0 each time.

As for `Cc1ccccc1-n1c(=O)on(C(=O)N(C2=CCOCC2)C(C)C)c1=O` [Compound 10], the “Redroot pigweed plant response rating” value with pigweed (setting [9]), in the assay on pigweed (setting [1]), in the assay with pigweed (setting [5]), in the assay with pigweed (setting [6]) and in the assay on pigweed (setting [7]) was 0 in each case. Besides, the “Plant response rating, Redroot pigweed” value in the assay with pigweed (setting [10]), in the assay with pigweed (setting [3]) and in the assay on pigweed (setting [4]) was 0 in each case. The “Rape plant response rating” value with rape (setting [9]), with rape (setting [1]), in the assay with rape (setting [5]), in the assay on rape (setting [6]) and in the assay with rape (setting [7]) was 0 each time. The “Plant response rating, Rape” value in the assay with rape (setting [10]), in the assay with rape (setting [3]) and with rape (setting [4]) was 0 throughout. The “Sugarbeets plant response rating” value in the assay with sugar beet (setting [9]), in the assay on sugar beet (setting [1]), in the assay on sugar beet (setting [5]) and in the assay with sugar beet (setting [6]) was 0 throughout. Further, the “Plant response rating, Sugarbeets” value in the assay with sugar beet (setting [10]), with sugar beet (setting [3]) and with sugar beet (setting [4]) was 0 throughout.

For the molecule `CC(C)N(C(=O)n1oc(=O)n(-c2ccc(OC(F)(F)F)cc2)c1=O)C1=CCOCC1` [Compound 13], the “Redroot pigweed plant response rating” value in the assay on pigweed (setting [1]), in the assay on pigweed (setting [2]), with pigweed (setting [5]), in the assay on pigweed (setting [6]) and in the assay on pigweed (setting [7]) was 0 throughout. For the same molecule, the results for the “Plant response rating, Redroot pigweed” value with pigweed (setting [3]), in the assay with pigweed (setting [4]) and in the assay on pigweed (setting [8]) were 0, 0 and 3, respectively. For the same molecule, the “Rape plant response rating” value with rape (setting [1]) is reported as 0; in the assay with rape (setting [2]), 1; in the assay on rape (setting [5]) it was 0; in the assay with rape (setting [6]), 0; with rape (setting [7]), 1. Besides, the “Plant response rating, Rape” value with rape (setting [3]), in the assay with rape (setting [4]) and in the assay with rape (setting [8]) was 0 in each case. The “Sugarbeets plant response rating” value with sugar beet (setting [1]), in the assay with sugar beet (setting [2]), in the assay on sugar beet (setting [5]) and in the assay on sugar beet (setting [6]) was 0 in each case. The “Plant response rating, Sugarbeets” value in the assay with sugar beet (setting [3]), in the assay on sugar beet (setting [4]) and in the assay on sugar beet (setting [8]) was 0 in each case.

In the case of `CCN(C(=O)n1oc(=O)n(-c2ccc(C)cc2C)c1=O)C1CCCCC1` [Compound 26], the “Redroot pigweed plant response rating” value in the assay with pigweed (setting [9]), in the assay with pigweed (setting [1]), in the assay with pigweed (setting [11]), in the assay on pigweed (setting [12]) and in the assay with pigweed (setting [6]) was 0 in each case. Also, the “Plant response rating, Redroot pigweed” value with pigweed (setting [10]), in the assay with pigweed (setting [3]) and in the assay with pigweed (setting [4]) was 0 throughout. The “Rape plant response rating” value in the assay with rape (setting [9]), in the assay with rape (setting [1]), with rape (setting [11]), with rape (setting [12]) and with rape (setting [6]) was 0 each time. Also, the “Plant response rating, Rape” value with rape (setting [10]), in the assay with rape (setting [3]) and in the assay with rape (setting [4]) was 0 throughout. Further, the “Sugarbeets plant response rating” value in the assay on sugar beet (setting [9]), in the assay on sugar beet (setting [1]), in the assay on sugar beet (setting [11]) and in the assay on sugar beet (setting [6]) was 0 in each case. For the same molecule, the “Plant response rating, Sugarbeets” value in the assay on sugar beet (setting [10]), in the assay on sugar beet (setting [3]) and in the assay on sugar beet (setting [4]) was 0 throughout.

With `COc1ccc(-n2c(=O)on(C(=O)N(c3ccc(F)cc3)C(C)C)c2=O)c(C)c1` [Compound 35], the “Redroot pigweed plant response rating” value with pigweed (setting [9]) is listed as 0; with pigweed (setting [1]), 9; with pigweed (setting [5]), 0; in the assay with pigweed (setting [6]), 7; in the assay on pigweed (setting [7]), 9. Moreover, the “Plant response rating, Redroot pigweed” value with pigweed (setting [10]), in the assay on pigweed (setting [3]) and in the assay with pigweed (setting [4]) was 0 in each case. The “Rape plant response rating” value is recorded as 0 in the assay with rape (setting [9]); 0 in the assay with rape (setting [1]); 0 in the assay with rape (setting [5]); 0 in the assay with rape (setting [6]); 2 in the assay on rape (setting [7]). The “Plant response rating, Rape” value in the assay on rape (setting [10]), in the assay on rape (setting [3]) and in the assay with rape (setting [4]) was 0 each time. The “Sugarbeets plant response rating” value in the assay on sugar beet (setting [9]) was 0; in the assay on sugar beet (setting [5]) it was 0; in the assay on sugar beet (setting [6]), 3. In addition, the “Plant response rating, Sugarbeets” value in the assay with sugar beet (setting [10]), in the assay on sugar beet (setting [3]) and in the assay on sugar beet (setting [4]) was 0 each time.
